From patent US8742106B2 (Novartis AG, priority 2009, dated 2014) come the findings set out here.

For experiment [1], the target named is human orexin 2 receptors (Homo sapiens (Human), UniProt O43614). Nature of the experiment: Calcium Accumulation in Cells (FLIPR), antagonism of orexin A. It is filed as cell-based. The note with it: for Ki: antagonism of orexin A, Cheng-Prusoff corrected, read-out: FLIPR hOx2R Ki; for inhibition at 10 µM: measured at a concentration of 10 μM of compound, read-out: FLIPR hOx2R % inhibition value. The method, then: (§1) Calcium Accumulation in Cells (FLIPR):
Cells expressing human orexin 1 or human orexin 2 receptors, were seeded at 8,000 cells/well in 384 well black-walled clear bottom, poly-D-lysine coated plates.
On the day of the experiment, the cells seeded in black plates were treated with assay buffer containing the Ca^2+ sensitive fluorescent dye Fluo4-AM (2 μM), and probenecid (0.1 mM). After 1 h plates were washed twice with, and resuspended in, assay buffer containing probenecid (0.1 mM) using a multi plate washer. […] Fluorescence measurements were then continued every 1 S for 120 S followed by every 4 S for 240 S.
(§2) The measurements were typically made in two sequences:
(§3) In the first round, compounds of formula (I) or (I′) were tested alone, to detect possible agonist activity. Compounds of formula I or I′ were tested usually in a concentration range from 10^−9 M to 10^−5 M.
(§4) In the second round, performed one hour later (to allow for equilibration), Orexin A was tested either in the absence (calibration curves, Orexin A agonist controls) or in the presence of compounds of formula (I) or (I′) to determine antagonism.

In experiment [2] the target is human orexin 1 receptors (Homo sapiens (Human), UniProt O43613). The experiment is described as above. Format: cell-based. The note with it: for Ki: antagonism of orexin A, Cheng-Prusoff corrected, read-out: FLIPR hOx1R Ki; for inhibition at 10 µM: measured at a concentration of 10 μM of compound, read-out: FLIPR hOx1R % inhibition value. As for the experimental part: as §1
human orexin 1 receptors, sequence (O43613 whole entry): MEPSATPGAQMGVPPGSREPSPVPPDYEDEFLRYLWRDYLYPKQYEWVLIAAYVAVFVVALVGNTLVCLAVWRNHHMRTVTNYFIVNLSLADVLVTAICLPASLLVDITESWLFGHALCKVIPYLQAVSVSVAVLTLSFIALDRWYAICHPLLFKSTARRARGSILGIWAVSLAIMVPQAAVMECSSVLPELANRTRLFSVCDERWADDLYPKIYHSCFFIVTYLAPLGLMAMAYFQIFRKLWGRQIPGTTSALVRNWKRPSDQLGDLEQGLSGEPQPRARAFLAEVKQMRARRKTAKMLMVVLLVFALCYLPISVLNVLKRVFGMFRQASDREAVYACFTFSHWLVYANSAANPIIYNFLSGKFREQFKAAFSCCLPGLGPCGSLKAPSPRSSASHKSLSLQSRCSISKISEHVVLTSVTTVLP
Cells expressing human orexin 1 or human orexin 2 receptors, were seeded at 8,000 cells/well in 384 well black-walled clear bottom, poly-D-lysine coated plates. After 24 h, the medium was removed and cells were washed once with phosphate buffered saline and serum-deprived overnight in assay buffer (130 mM NaCl, 5.4 mM KCl, 1.8 mM CaCl2, 0.8 mM MgSO4, 0.9 mM NaH2PO4, 25 mM glucose, 20 mM HEPES, pH 7.4) containing bovine serum albumin (1% w/v).
On the day of the experiment, the cells seeded in black plates were treated with assay buffer containing the Ca^2+ sensitive fluorescent dye Fluo4-AM (2 μM), and probenecid (0.1 mM). After 1 h plates were washed twice with, and resuspended in, assay buffer containing probenecid (0.1 mM) using a multi plate washer. The plates were placed into a FLIPR II (Fluorometric Imaging Plate Reader, Molecular Devices, Sunnyvale, Calif., USA) and baseline fluorescence (fluorescence light units, FLU) was measured (5 measurements, 2 S each; laser excitation 488 nm at 0.6-1 W, CCD camera exposure 0.4 s) before addition of buffer alone (basal) or containing test compounds (either compound of formula (I) or (I′) alone, agonist alone or agonist in the presence of various concentrations of compounds of formula (I) or (I′)). Fluorescence measurements were then continued every 1 S for 120 S followed by every 4 S for 240 S.
as §2, §3, §4

human orexin 2 receptors, sequence (O43614 whole entry): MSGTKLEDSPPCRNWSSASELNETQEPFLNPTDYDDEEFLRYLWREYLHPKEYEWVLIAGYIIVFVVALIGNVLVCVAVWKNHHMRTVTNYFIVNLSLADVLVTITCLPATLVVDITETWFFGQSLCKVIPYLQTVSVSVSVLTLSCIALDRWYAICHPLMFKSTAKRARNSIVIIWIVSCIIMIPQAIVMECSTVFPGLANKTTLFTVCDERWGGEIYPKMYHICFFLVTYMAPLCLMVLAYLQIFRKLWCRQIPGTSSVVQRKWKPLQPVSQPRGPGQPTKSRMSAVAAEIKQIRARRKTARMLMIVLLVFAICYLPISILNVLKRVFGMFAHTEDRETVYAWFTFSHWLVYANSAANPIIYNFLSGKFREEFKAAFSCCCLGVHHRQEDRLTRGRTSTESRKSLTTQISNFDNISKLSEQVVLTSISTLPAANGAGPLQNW

Broadly, the Ki is the dissociation constant of the complex between target and ligand, obtained from inhibition or displacement. As for `COc1cccc(CNC(=O)COc2cc(C(F)(F)F)c3c(-c4ccccc4)nn(C)c3n2)c1` [Example 1.33, N-(3-methoxybenzyl)-2-(1-methyl-3-phenyl-4-(trifluoromethyl)-1H-pyrazolo[3,4-b]pyridin-6-yloxy)acetamide], the Ki in experiment [1] amounted to 427 nM; in experiment [2], 1650 nM.

Take `C[C@H](NC(=O)COc1cc(C(F)(F)F)c2c(-c3cccnc3)nn(C)c2n1)c1ccccc1` [Example 1.34, (S)-2-(1-methyl-3-(pyridin-3-yl)-4-(trifluoromethyl)-1H-pyrazolo[3,4-b]pyridin-6-yloxy)-N-(1-phenylethyl)acetamide]: the Ki in experiment [1] amounted to 323 nM; in experiment [2], 869 nM.

By inhibition is commonly meant the percentage by which the read-out fell short of the control. `CCn1cnnc1C(C)NC(=O)COc1cc(C(F)(F)F)c2c(-c3ccccc3)nn(C)c2n1` (stereo not shown) [Example 1.35, N-(1-(4-ethyl-4H-1,2,4-triazol-3-yl)ethyl)-2-(1-methyl-3-phenyl-4-(trifluoromethyl)-1H-pyrazolo[3,4-b]pyridin-6-yloxy)acetamide]: the inhibition at 10 µM in experiment [1] and in experiment [2] was 22% each time.

In the case of `CC(C)c1noc(C(C)NC(=O)COc2cc(C(F)(F)F)c3c(-c4ccccc4)nn(C)c3n2)n1` (stereo not shown) [Example 1.36, N-(1-(3-isopropyl-1,2,4-oxadiazol-5-yl)ethyl)-2-(1-methyl-3-phenyl-4-(trifluoromethyl)-1H-pyrazolo[3,4-b]pyridin-6-yloxy)acetamide], the inhibition at 10 µM in experiment [1] amounted to 30%. For the same compound, the Ki in experiment [2] came to 3360 nM.

Regarding `C[C@H](NC(=O)COc1cc(C(F)(F)F)c2c(C(C)(C)C)nn(C)c2n1)c1ccccc1` [Example 1.37, (S)-2-(3-tert-butyl-1-methyl-4-(trifluoromethyl)-1H-pyrazolo[3,4-b]pyridin-6-yloxy)-N-(1-phenylethyl)acetamide], the Ki in experiment [1] came out at 298 nM; in experiment [2] it was 1950 nM.

Regarding `Cc1nc(C(C)NC(=O)COc2cc(C(F)(F)F)c3c(-c4ccccc4)nn(C)c3n2)c(C)s1` (stereo not shown) [Example 1.40, N-(1-(2,5-dimethylthiazol-4-yl)ethyl)-2-(1-methyl-3-phenyl-4-(trifluoromethyl)-1H-pyrazolo[3,4-b]pyridin-6-yloxy)acetamide], the Ki in experiment [1] was 2900 nM. Also, the inhibition at 10 µM in experiment [2] came to 37%.

Turning to `Cn1nc(-c2ccccc2)c2c(C(F)(F)F)cc(OCC(=O)NCc3ccccc3F)nc21` [Example 1.42, N-(2-fluorobenzyl)-2-(1-methyl-3-phenyl-4-(trifluoromethyl)-1H-pyrazolo[3,4-b]pyridin-6-yloxy)acetamide], the Ki in experiment [1] worked out at 890 nM; in experiment [2] it was 1590 nM.

As for `Cn1nc(-c2ccccc2)c2c(C(F)(F)F)cc(OCC(=O)NCc3cccc(Cl)c3)nc21` [Example 1.43, N-(3-chlorobenzyl)-2-(1-methyl-3-phenyl-4-(trifluoromethyl)-1H-pyrazolo[3,4-b]pyridin-6-yloxy)acetamide], the Ki in experiment [1] was determined as 2060 nM. In addition, the inhibition at 10 µM in experiment [2] was 24%.

For `COc1ccccc1C(C)NC(=O)COc1cc(C(F)(F)F)c2c(-c3ccccc3)nn(C)c2n1` (stereo not shown) [Example 1.44, N-(1-(2-methoxyphenyl)ethyl)-2-(1-methyl-3-phenyl-4-(trifluoromethyl)-1H-pyrazolo[3,4-b]pyridin-6-yloxy)acetamide], the figures for the inhibition constant Ki in experiment [1] and in experiment [2] were 158 nM and 274 nM, respectively.

For the compound `C[C@H](NC(=O)COc1cc(C2CC2)c2c(-c3ccccc3)nn(C)c2n1)c1ccccc1` [Example 1.47, (S)-2-(4-cyclopropyl-1-methyl-3-phenyl-1H-pyrazolo[3,4-b]pyridin-6-yloxy)-N-(1-phenylethyl)acetamide], the Ki in experiment [1] worked out at 561 nM; in experiment [2] it was 441 nM.

As for `C[C@H](NC(=O)COc1cc(C(F)(F)F)c2c(C3CC3)nn(C)c2n1)c1ccccc1` [Example 1.50, (S)-2-(3-cyclopropyl-1-methyl-4-(trifluoromethyl)-1H-pyrazolo[3,4-b]pyridin-6-yloxy)-N-(1-phenylethyl)acetamide], the inhibition constant (Ki) in experiment [1] turned out to be 168 nM; in experiment [2] it was 730 nM.

With `C[C@H](NC(=O)COc1cc(C(F)(F)F)c2c(C3CCCCC3)nn(C)c2n1)c1ccccc1` [Example 1.51, (S)-2-(3-cyclohexyl-1-methyl-4-(trifluoromethyl)-1H-pyrazolo[3,4-b]pyridin-6-yloxy)-N-(1-phenylethyl)acetamide], the Ki in experiment [1] was found to be 364 nM; in experiment [2], 471 nM.

As for `C[C@H](NC(=O)COc1cc(C(F)(F)F)c2c(C3CCCC3)nn(C)c2n1)c1ccccc1` [Example 1.52, (S)-2-(3-cyclopentyl-1-methyl-4-(trifluoromethyl)-1H-pyrazolo[3,4-b]pyridin-6-yloxy)-N-(1-phenylethyl)acetamide], the Ki was 868 nM in experiment [1] and 1170 nM in experiment [2].

For the compound `Cn1nc(-c2ccccc2)c2c(C(F)(F)F)cc(OCC(=O)NC3CC3)nc21` [Example 1.53, N-cyclopropyl-2-(1-methyl-3-phenyl-4-(trifluoromethyl)-1H-pyrazolo[3,4-b]pyridin-6-yloxy)acetamide], the inhibition at 10 µM in experiment [1] turned out to be 36%; in experiment [2], 14%.

Regarding `Cn1nc(-c2ccccc2)c2c(C(F)(F)F)cc(OCC(=O)NC3CCC3)nc21` [Example 1.54, N-cyclobutyl-2-(1-methyl-3-phenyl-4-(trifluoromethyl)-1H-pyrazolo[3,4-b]pyridin-6-yloxy)acetamide], the inhibition at 10 µM in experiment [1] is 42%; in experiment [2], 25%.

With `CCCNC(=O)COc1cc(C(F)(F)F)c2c(-c3ccccc3)nn(C)c2n1` [Example 1.55, 2-(1-methyl-3-phenyl-4-(trifluoromethyl)-1H-pyrazolo[3,4-b]pyridin-6-yloxy)-N-propylacetamide], in experiment [1], the Ki came out at 767 nM. Moreover, the inhibition at 10 µM in experiment [2] is 23%.

`Cn1nc(-c2ccccc2)c2c(C(F)(F)F)cc(OCC(=O)NC3CCCc4ccccc43)nc21` (stereo not shown) [Example 1.56, 2-(1-methyl-3-phenyl-4-(trifluoromethyl)-1H-pyrazolo[3,4-b]pyridin-6-yloxy)-N-(1,2,3,4-tetrahydronaphthalen-1-yl)acetamide]: the values for the Ki in experiment [1] and in experiment [2] were 165 nM and 378 nM, respectively.

For `C[C@H](NC(=O)COc1cc(C(F)(F)F)c2c(-c3cccc(Cl)c3)nn(C)c2n1)c1ccccc1` [Example 1.57, (S)-2-(3-(3-chlorophenyl)-1-methyl-4-(trifluoromethyl)-1H-pyrazolo[3,4-b]pyridin-6-yloxy)-N-(1-phenylethyl)acetamide], the Ki in experiment [1] was determined as 106 nM; in experiment [2] it was 66 nM.

Turning to `COc1ccc([C@@H](C)NC(=O)COc2cc(C(F)(F)F)c3c(-c4ccccc4)nn(C)c3n2)cc1` [Example 1.59, (R)-N-(1-(4-methoxyphenyl)ethyl)-2-(1-methyl-3-phenyl-4-(trifluoromethyl)-1H-pyrazolo[3,4-b]pyridin-6-yloxy)acetamide], the Ki turned out to be 949 nM in experiment [1] and 2290 nM in experiment [2].

Turning to `Cc1cc(OCC(=O)NC(C)c2ccncc2)nc2c1c(-c1ccccc1)nn2C` (stereo not shown) [Example 1.63, 2-(1,4-dimethyl-3-phenyl-1H-pyrazolo[3,4-b]pyridin-6-yloxy)-N-(1-(pyridin-4-yl)ethyl)acetamide], the inhibition at 10 µM in experiment [1] is 34%; in experiment [2], 27%.

As to `Cc1cc(OCC(=O)NC(C)c2cccnc2)nc2c1c(-c1ccccc1)nn2C` (stereo not shown) [Example 1.64, 2-(1,4-dimethyl-3-phenyl-1H-pyrazolo[3,4-b]pyridin-6-yloxy)-N-(1-(pyridin-3-yl)ethyl)acetamide], the values for the inhibition at 10 µM in experiment [1] and in experiment [2] were 39% and 26%, respectively.

In the case of `Cc1cc(OCC(=O)NC(C)c2ccccn2)nc2c1c(-c1ccccc1)nn2C` (stereo not shown) [Example 1.65, 2-(1,4-dimethyl-3-phenyl-1H-pyrazolo[3,4-b]pyridin-6-yloxy)-N-(1-(pyridin-2-yl)ethyl)acetamide], the results for the inhibition at 10 µM in experiment [1] and in experiment [2] were 30% and 26%, respectively.

Take `Cc1cccc(CNC(=O)COc2cc(C(F)(F)F)c3c(-c4ccccc4)nn(C)c3n2)c1` [Example 1.66, 2-(1-methyl-3-phenyl-4-(trifluoromethyl)-1H-pyrazolo[3,4-b]pyridin-6-yloxy)-N-(3-methylbenzyl)acetamide]: the inhibition at 10 µM in experiment [1] is 41%; in experiment [2], 23%.
